# According to article PMC8343220, “The selectivity of α‐adrenoceptor agonists for the human α1A, α1B, and α1D‐adrenoceptors” (Pharmacology Research & Perspectives, 2021):
# Marks after values point to notes of the source that are not given here.
# How the values were obtained:
# human α1A‐adrenoceptor [1] = target: T1, human α1A‐adrenoceptor (Homo sapiens, UniProt P35348); experiment: ^3H‐cAMP accumulation in the presence of 10 μM forskolin, CHO‐α1A cells; format: cell-based; conditions: CHO‐α1A cells
# T1 construct: expressed in transfected cells; host or cells: CHO-K1
# T1 sequence (P35348 1-466): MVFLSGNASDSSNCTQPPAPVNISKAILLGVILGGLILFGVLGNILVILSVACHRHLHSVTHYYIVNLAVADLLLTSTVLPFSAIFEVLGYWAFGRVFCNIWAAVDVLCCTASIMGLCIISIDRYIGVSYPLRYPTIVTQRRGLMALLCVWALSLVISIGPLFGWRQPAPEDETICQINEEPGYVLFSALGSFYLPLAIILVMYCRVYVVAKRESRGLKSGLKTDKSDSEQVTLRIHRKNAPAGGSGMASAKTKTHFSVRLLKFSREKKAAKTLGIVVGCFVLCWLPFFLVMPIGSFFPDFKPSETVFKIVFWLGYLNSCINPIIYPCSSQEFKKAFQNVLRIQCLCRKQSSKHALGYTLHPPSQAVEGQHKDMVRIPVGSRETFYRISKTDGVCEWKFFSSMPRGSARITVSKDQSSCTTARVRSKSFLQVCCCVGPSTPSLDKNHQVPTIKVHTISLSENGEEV
# human α1B‐adrenoceptor [2] = target: T2, human α1B‐adrenoceptor (Homo sapiens, UniProt P35368); experiment: ERK1/2‐phosphorylation (Surefire Alphascreen), CHO‐α1B cells; format: cell-based
# T2 construct: expressed in transfected cells; host or cells: CHO-K1
# T2 sequence (P35368 1-520): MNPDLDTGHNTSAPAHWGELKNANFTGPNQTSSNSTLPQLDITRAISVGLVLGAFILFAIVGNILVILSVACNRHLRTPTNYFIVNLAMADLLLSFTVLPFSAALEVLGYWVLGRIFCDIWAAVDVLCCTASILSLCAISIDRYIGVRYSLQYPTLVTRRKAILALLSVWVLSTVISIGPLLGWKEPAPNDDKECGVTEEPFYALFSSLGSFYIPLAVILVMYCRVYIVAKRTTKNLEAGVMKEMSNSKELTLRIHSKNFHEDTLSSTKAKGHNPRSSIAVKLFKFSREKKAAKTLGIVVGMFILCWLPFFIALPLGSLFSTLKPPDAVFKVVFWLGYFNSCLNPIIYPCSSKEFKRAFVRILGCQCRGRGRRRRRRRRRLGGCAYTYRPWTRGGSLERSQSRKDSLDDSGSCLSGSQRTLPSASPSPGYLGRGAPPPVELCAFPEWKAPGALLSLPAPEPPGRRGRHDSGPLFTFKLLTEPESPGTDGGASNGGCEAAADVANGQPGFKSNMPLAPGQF
# [3] = target: T3, human α1D‐adrenoceptor (full length) (Homo sapiens, UniProt P25100); experiment: ^3H‐prazosin whole‐cell radioligand binding, CHO‐α1D cells
# T3 construct: human α1D‐adrenoceptor (full length) were used; expressed in transfected cells; host or cells: CHO-K1
# T3 sequence (P25100 1-572): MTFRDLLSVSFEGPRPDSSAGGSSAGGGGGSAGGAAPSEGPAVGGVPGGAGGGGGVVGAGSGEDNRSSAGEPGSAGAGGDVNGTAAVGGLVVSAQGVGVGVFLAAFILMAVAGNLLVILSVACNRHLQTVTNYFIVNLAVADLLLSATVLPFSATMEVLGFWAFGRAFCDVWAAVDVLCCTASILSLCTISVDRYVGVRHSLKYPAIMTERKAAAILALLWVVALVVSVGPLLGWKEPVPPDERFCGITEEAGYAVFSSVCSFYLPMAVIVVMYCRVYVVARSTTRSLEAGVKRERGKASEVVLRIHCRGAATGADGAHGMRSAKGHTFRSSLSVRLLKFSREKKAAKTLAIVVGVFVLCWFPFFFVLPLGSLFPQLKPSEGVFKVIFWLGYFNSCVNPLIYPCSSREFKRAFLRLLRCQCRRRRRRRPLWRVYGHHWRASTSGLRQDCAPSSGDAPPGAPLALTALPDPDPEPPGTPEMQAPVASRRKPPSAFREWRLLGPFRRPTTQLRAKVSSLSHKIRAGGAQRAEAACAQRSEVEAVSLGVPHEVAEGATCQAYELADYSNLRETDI
# human α1B‐adrenoceptor [4] = target: T2, human α1B‐adrenoceptor; experiment: Intracellular free calcium mobilization, CHO‐α1B cells; format: cell-based
# human α1B‐adrenoceptor [5] = target: T2, human α1B‐adrenoceptor; experiment: ^3H‐cAMP accumulation, CHO‐α1B cells; format: cell-based; conditions: CHO‐α1B cells; response at 100 µM ligand (no EC50 given)
# [6] = target: T3, human α1D‐adrenoceptor (full length); experiment: ERK1/2‐phosphorylation (Surefire Alphascreen), CHO‐α1D cells; format: cell-based
# [7] = target: T3, human α1D‐adrenoceptor (full length); experiment: Intracellular free calcium mobilization, CHO‐α1D cells; format: cell-based
# human α1A‐adrenoceptor [8] = target: T1, human α1A‐adrenoceptor; experiment: ^3H‐prazosin whole‐cell radioligand binding, CHO‐α1A cells
# human α1B‐adrenoceptor [9] = target: T2, human α1B‐adrenoceptor; experiment: ^3H‐prazosin whole‐cell radioligand binding, CHO‐α1B cells
# human α1A‐adrenoceptor [10] = target: T1, human α1A‐adrenoceptor; experiment: Intracellular free calcium mobilization, CHO‐α1A cells; format: cell-based
# human α1B‐adrenoceptor [11] = target: T2, human α1B‐adrenoceptor; experiment: ^3H‐cAMP accumulation in the presence of 10 μM forskolin, CHO‐α1B cells; format: cell-based; conditions: CHO‐α1B cells
# human α1A‐adrenoceptor [12] = target: T1, human α1A‐adrenoceptor; experiment: ^3H‐cAMP accumulation, CHO‐α1A cells; format: cell-based; conditions: CHO‐α1A cells
# human α1A‐adrenoceptor [13] = target: T1, human α1A‐adrenoceptor; experiment: ERK1/2‐phosphorylation (Surefire Alphascreen), CHO‐α1A cells; format: cell-based
# [14] = target: T3, human α1D‐adrenoceptor (full length); experiment: ^3H‐cAMP accumulation in the presence of 10 μM forskolin, CHO‐α1D cells; format: cell-based; conditions: CHO‐α1D cells
# [15] = target: T3, human α1D‐adrenoceptor (full length); experiment: ^3H‐cAMP accumulation, CHO‐α1D cells; format: cell-based; conditions: cAMP accumulation without forskolin
# [16] = fold increase of the forskolin response
compound,measurement,setting,value
CC(N)C(O)c1ccc(O)c(O)c1 (stereo not drawn) [α‐Methylnorepinephrine],cAMP accumulation (in presence of forskolin) Log EC50,human α1A‐adrenoceptor [1]; 10 μM forskolin,−5.74 ± 0.10
same,cAMP accumulation (in presence of forskolin) Fold increase,human α1A‐adrenoceptor [1]; [16],2.49 ± 0.05 fold
same,ERK1/2‐phosphorylation % PDBu,human α1B‐adrenoceptor [2],90.6 ± 4.4%
same,ERK1/2‐phosphorylation Log EC50,human α1B‐adrenoceptor [2],−6.75 ± 0.13
same,3H‐prazosin binding Log KD,[3],−4.84
same,Affinity selectivity ratio α1A vs α1D,[3],3.3 fold
same,Affinity selectivity ratio α1B vs α1D,[3],>69.2 fold
same,"Log KD α1D, ^3H‐prazosin whole cell binding",[3],−4.84 ± 0.14^early plateau
same,Intracellular calcium release % ionomycin,human α1B‐adrenoceptor [4],69.1 ± 2.6%
same,Intracellular calcium release Log EC50,human α1B‐adrenoceptor [4],−8.10 ± 0.11
same,Log efficacy ratio KD /EC50,human α1B‐adrenoceptor [4],>5.10
same,cAMP accumulation % forskolin at 100 µM,human α1B‐adrenoceptor [5],129.7 ± 20.5%
same,ERK1/2‐phosphorylation % PDBu,[6],27.7 ± 4.9%
same,ERK1/2‐phosphorylation Log EC50,[6],−5.74 ± 0.11
same,Intracellular calcium release % ionomycin,[7],29.9 ± 3.6%
same,Intracellular calcium release Log EC50,[7],−7.02 ± 0.10
same,Log efficacy ratio KD /EC50,[7],2.18
same,Affinity selectivity ratio α1A vs α1B,human α1A‐adrenoceptor [8],>20.9 fold
same,"Log KD α1A, ^3H‐prazosin whole cell binding",human α1A‐adrenoceptor [8],−4.32 ± 0.04
same,"Log IC50 α1B, ^3H‐prazosin whole cell binding",human α1B‐adrenoceptor [9],IC50>−3
same,Intracellular calcium release % ionomycin,human α1A‐adrenoceptor [10],65.2 ± 2.6%
same,Intracellular calcium release Log EC50,human α1A‐adrenoceptor [10],−7.69 ± 0.07
same,Log efficacy ratio KD /EC50,human α1A‐adrenoceptor [10],3.37
same,cAMP accumulation (in presence of forskolin) Fold increase,human α1B‐adrenoceptor [11]; [16],3.09 ± 0.21 fold
same,cAMP accumulation (in presence of forskolin) Log EC50,human α1B‐adrenoceptor [11]; in presence of forskolin,−5.56 ± 0.05
same,cAMP accumulation Log EC50,human α1A‐adrenoceptor [12]; 5 h,−5.09 ± 0.06
same,cAMP accumulation % forskolin,human α1A‐adrenoceptor [12]; % of 10 µM forskolin response,166.8 ± 7.4%
same,ERK1/2‐phosphorylation % PDBu,human α1A‐adrenoceptor [13],87.5 ± 6.3%
same,ERK1/2‐phosphorylation Log EC50,human α1A‐adrenoceptor [13],−6.86 ± 0.12 ^a
same,cAMP (in presence of forskolin) Fold increase,[14]; [16],1.23 ± 0.06
same,cAMP (in presence of forskolin) Log EC50,"[14]; in presence of forskolin, log values given negative",−6.05 ± 0.12
same,cAMP Log EC50,[15],No response
